Key:
[1] = morphine 30 mg/kg orally twice per day
[2] = system: TH (tyrosine hydroxylase); experiment: CNS phosphoprotein profile, TH; format: in vivo; conditions: mice nucleus accumbens; Example 1 3 mg/kg at 30 or 60 minutes; haloperidol 2 mg/kg
Description: A comprehensive molecular phosphorylation study is also carried out to examine the central nervous system (CNS) profile of the compound of Example 1. The extent of protein phosphorylation for selected key central nervous system proteins is measured in mice nucleus accumbens.
Mice were killed 30 minutes to 2 hours post-injection by focused microwave cranial irradiation, which preserves brain phosphoprotein as it exists at the time of death. Nucleus accumbens was then dissected from each mouse brain, sliced and frozen in liquid nitrogen. Samples were further prepared for phosphoprotein analysis via SDS-PAGE electrophoresis followed by phosphoprotein-specific immunoblotting, as described in Zhu H, et al., Brain Res. 2010 Jun. 25; 1342:11-23. Phosphorylation at each site was quantified, normalized to total levels of the protein (non-phosphorylated), and expressed as percent of the level of phosphorylation in vehicle-treated control mice.

SMILES | tolerance and dependence [1] | increase in TH phosphorylation at Ser40 [2]
CN1CC[C@]23c4c5ccc(O)c4O[C@H]2[C@@H](O)C=C[C@H]3[C@H]1C5 [Morphine] | clear signs of tolerance and dependence | 
O=C(CCCN1CCC(O)(c2ccc(Cl)cc2)CC1)c1ccc(F)cc1 [haloperidol] |  | greater than 400%
Cc1nc2n(c(=O)c1CCN1CCC(c3noc4cc(F)ccc34)CC1)CCCC2 [risperidone] |  | greater than 500%
